“And” between values parts separate entries of the source, which are not always exact repeats. Equal entries are not always repeated. Toxic doses and inconclusive results are not listed. How the source made its calls: active means survival T/C of 150% or more; inactive means T/C below 125% in these data.
Tested on: P388 leukemia ip, CD2F1 mice, survival T/C
Assay: NCI In Vivo Anticancer Drug Screen. Data for tumor model P388 Leukemia (intraperitoneal) in CD2F1 (CDF1) mice
Details: endpoint: median survival time, higher = longer survival
Procedure, shortened: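 Mice carrying the transplanted tumor received test compound or vehicle. Survival was recorded in each group, and the value is the treated-group measurement divided by that of the vehicle-treated control group.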

[1] = dose: 50.0 mg/kg/injection, schedule: Q01DX009 (ip), vehicle: saline with Tween-80
[2] = dose: 100.0 mg/kg/injection, schedule: Q01DX009 (ip), vehicle: saline with Tween-80
[3] = dose: 200.0 mg/kg/injection, schedule: Q01DX009 (ip), vehicle: saline with Tween-80
[4] = dose: 100.0 mg/kg/injection, schedule: Q01DX009 (ip), vehicle: Klucel (hydroxypropylcellulose) (HPC)
[5] = dose: 50.0 mg/kg/injection, schedule: Q01DX005 (ip), vehicle: saline
[6] = dose: 100.0 mg/kg/injection, schedule: Q01DX005 (ip), vehicle: saline
[7] = dose: 200.0 mg/kg/injection, schedule: Q01DX005 (ip), vehicle: saline
[8] = dose: 100.0 mg/kg/injection, schedule: Q04DX002 (ip), vehicle: saline with Tween-80
[9] = dose: 200.0 mg/kg/injection, schedule: Q04DX002 (ip), vehicle: saline with Tween-80
[10] = dose: 50.0 mg/kg/injection, schedule: Q01DX005 (ip), vehicle: saline with Tween-80
[11] = dose: 100.0 mg/kg/injection, schedule: Q01DX005 (ip), vehicle: saline with Tween-80
[12] = dose: 200.0 mg/kg/injection, schedule: Q01DX005 (ip), vehicle: saline with Tween-80
[13] = dose: 50.0 mg/kg/injection, schedule: Q01DX009 (ip), vehicle: Klucel (hydroxypropylcellulose) (HPC)
[14] = dose: 200.0 mg/kg/injection, schedule: Q01DX009 (ip), vehicle: Klucel (hydroxypropylcellulose) (HPC)
[15] = dose: 400.0 mg/kg/injection, schedule: Q04DX002 (ip), vehicle: saline with Tween-80
[16] = dose: 50.0 mg/kg/injection, schedule: Q01DX009 (ip), vehicle: saline
[17] = dose: 100.0 mg/kg/injection, schedule: Q01DX009 (ip), vehicle: saline
[18] = dose: 200.0 mg/kg/injection, schedule: Q01DX009 (ip), vehicle: saline

Measured: T/C

CC(C)c1cc2c(cc1O)C(O)C1(O)CCCC(C)(C)[C@H]1CC2 (some centres not stated)
inactive: dose: 7.5 mg/kg/injection, schedule: Q01DX005 (ip), vehicle: other 104 % of control | dose: 15.0 mg/kg/injection, schedule: Q01DX005 (ip), vehicle: other 100 % of control | dose: 30.0 mg/kg/injection, schedule: Q01DX005 (ip), vehicle: other 86 % of control | dose: 60.0 mg/kg/injection, schedule: Q01DX005 (ip), vehicle: other 94 % of control

O=C(c1ccc(Cl)cc1)c1nnc(Cl)s1
inactive: [1] 110 % of control | [2] 118 % of control | [3] 101 % of control

Fc1ccc(NC(=S)SCc2ccc(Cl)c(Cl)c2)cc1F
inactive: dose: 12.5 mg/kg/injection, schedule: Q01DX009 (ip), vehicle: Klucel (hydroxypropylcellulose) (HPC) 124 % of control | [4] 116 % of control and 96 % of control

CCC[CH2][Sn]([CH2]CCN(C)C)([CH2]CCN(C)C)[CH2]CCN(C)C
inactive: [1] 100 % of control | [2] 107 % of control

COP(=O)(O)OC.[V]
inactive: dose: 50.0 mg/kg/injection, schedule: Q04DX003 (ip), vehicle: saline with Tween-80 96 % of control | dose: 100.0 mg/kg/injection, schedule: Q04DX003 (ip), vehicle: saline with Tween-80 103 % of control and 108 % of control | dose: 200.0 mg/kg/injection, schedule: Q04DX003 (ip), vehicle: saline with Tween-80 99 % of control

CN=C(C)NO
inactive: [5] 106 % of control | [6] 104 % of control | [7] 99 % of control

OCC1OC(Oc2ccc(Cl)cc2)C(O)C1O (configuration not stated)
inactive: dose: 50.0 mg/kg/injection, schedule: Q04DX002 (ip), vehicle: saline with Tween-80 105 % of control | [8] 98 % of control | [9] 112 % of control

CC(=O)N/C(=C\c1ccccc1)C(=O)NC(C)C(=O)O (configuration not stated)
inactive: [10] 89 % of control | [11] 92 % of control | [12] 86 % of control

CC(=O)Nc1ccc2c(c1)/C(=C/c1ccc(N(C)C)cc1)c1ccccc1-2
inactive: dose: 25.0 mg/kg/injection, schedule: Q01DX009 (ip), vehicle: Klucel (hydroxypropylcellulose) (HPC) 91 % of control | [13] 96 % of control | [4] 96 % of control | [14] 100 % of control

O=C(CCC(=O)ON1C(=O)CCC1=O)OCCOC(=O)CCC(=O)ON1C(=O)CCC1=O
inactive: [10] 116 % of control | [11] 114 % of control | [12] 98 % of control

COc1ccc2c(c1)CCC1=C2N=CN2CCN=C12
inactive: [8] 102 % of control

Nc1ccccc1N1C(c2ccccc2)=CC(=O)N2CCN=C21
inactive: [13] 90 % of control | [4] 101 % of control | [14] 95 % of control

CN(C)c1ccc(/C=C/C(=O)c2ccc(Nc3ccnc4cc(Cl)ccc34)cc2)cc1
inactive: [15] 93 % of control

CC(c1ccccc1)c1cc(C(C)(C)C)c(O)c(C(C)(C)C)c1 (configuration not stated)
inactive: dose: 50.0 mg/kg/injection, schedule: Q01DX005 (ip), vehicle: distilled water + alcohol 100 % of control | dose: 100.0 mg/kg/injection, schedule: Q01DX005 (ip), vehicle: distilled water + alcohol 99 % of control | dose: 200.0 mg/kg/injection, schedule: Q01DX005 (ip), vehicle: distilled water + alcohol 93 % of control

CCC(C)=C(C#N)NC(C)(C)C (mixture of isomers)
inactive: [16] 106 % of control | [17] 100 % of control | [18] 110 % of control

Cc1nn(C(=O)c2ccncc2)c(C)c1N=Nc1ccc([N+](=O)[O-])cc1
inactive: [13] 92 % of control | [4] 93 % of control

COc1ccc(S(=O)(=O)c2coc3ccccc3c2=O)cc1
inactive: dose: 60.0 mg/kg/injection, schedule: Q01DX005 (ip), vehicle: saline with Tween-80 110 % of control | dose: 120.0 mg/kg/injection, schedule: Q01DX005 (ip), vehicle: saline with Tween-80 103 % of control | dose: 240.0 mg/kg/injection, schedule: Q01DX005 (ip), vehicle: saline with Tween-80 96 % of control

CCC1C(=O)OCC1Cc1cncn1C (configuration not stated)
inactive: [5] 100 % of control | [6] 94 % of control | [7] 98 % of control

CC1N=C(SCc2c(F)cccc2Cl)N2C(C)N=C(SCc3c(F)cccc3Cl)N12 (configuration not stated)
inactive: [10] 96 % of control | [11] 96 % of control | [12] 93 % of control

O=[N+]([O-])c1ccc(N2c3ccccc3SC23CCCC3)c([N+](=O)[O-])c1
inactive: [10] 100 % of control | [11] 100 % of control | [12] 99 % of control

C/C=C/C=C/C(=O)Nc1ncc([N+](=O)[O-])s1
inactive: [13] 103 % of control | [4] 104 % of control | [14] 109 % of control

CN(C)C1C(O)C2Oc3c(cc(O)c4c3C(=O)c3cc5c(c(O)c3C4=O)C(OCCN)CC(C)(O)C5)C(C)(O2)C1O (configuration not stated)
inactive: dose: 5.0 mg/kg/injection, schedule: Q01DX009 (ip), vehicle: other 99 % of control | dose: 10.0 mg/kg/injection, schedule: Q01DX009 (ip), vehicle: other 101 % of control | dose: 20.0 mg/kg/injection, schedule: Q01DX009 (ip), vehicle: other 106 % of control | dose: 40.0 mg/kg/injection, schedule: Q01DX009 (ip), vehicle: other 117 % of control

CCOC(=O)c1ccc(NC(=O)Nc2ccc(OC)cc2Cl)cc1
inactive: dose: 60.0 mg/kg/injection, schedule: Q01DX005 (ip), vehicle: Klucel (hydroxypropylcellulose) (HPC) 91 % of control | dose: 120.0 mg/kg/injection, schedule: Q01DX005 (ip), vehicle: Klucel (hydroxypropylcellulose) (HPC) 93 % of control | dose: 240.0 mg/kg/injection, schedule: Q01DX005 (ip), vehicle: Klucel (hydroxypropylcellulose) (HPC) 96 % of control

CC(=O)OB(OC(C)=O)O[B-]12Oc3ccccc3C=[N+]1c1ccccc1S2 (configuration not stated)
inactive: [8] 106 % of control | [9] 97 % of control | [15] 92 % of control

Cn1c2cc(=O)ccc2c2c3nc4ccccc4[nH]c3cc(O)c21
inactive: [16] 98 % of control and 100 % of control | [17] 95 % of control and 91 % of control | [18] 100 % of control and 104 % of control

NC(=O)c1ccc[n+](CCC[n+]2cccc(C(N)=O)c2)c1
inactive: dose: 60.0 mg/kg/injection, schedule: Q01DX005 (ip), vehicle: saline 103 % of control | dose: 120.0 mg/kg/injection, schedule: Q01DX005 (ip), vehicle: saline 101 % of control | dose: 240.0 mg/kg/injection, schedule: Q01DX005 (ip), vehicle: saline 99 % of control

CCOc1c/c(=N\N=C(/C)c2ccc(Cl)cc2)n(C)c(=O)n1C
inactive: [13] 93 % of control | [4] 96 % of control | [14] 100 % of control

O=C(Nc1ccc(Cl)c(Cl)c1)OCc1cccnc1
inactive: [13] 95 % of control | [4] 97 % of control | [14] 95 % of control

CC(C)=CCN1C(=O)c2ccccc2C1=O
inactive: dose: 25.0 mg/kg/injection, schedule: Q01DX009 (ip), vehicle: saline with Tween-80 109 % of control | [1] 109 % of control | [2] 104 % of control | [17] 94 % of control | dose: 100.0 mg/kg/injection, schedule: Q01DX009 (ip), vehicle: suspension in saline 98 % of control and 91 % of control | [18] 102 % of control | dose: 200.0 mg/kg/injection, schedule: Q01DX009 (ip), vehicle: suspension in saline 100 % of control and 103 % of control | dose: 400.0 mg/kg/injection, schedule: Q01DX009 (ip), vehicle: saline 120 % of control | dose: 400.0 mg/kg/injection, schedule: Q01DX009 (ip), vehicle: suspension in saline 110 % of control and 91 % of control

CCCCCCCCC(C(=O)N/N=C(\C)c1ccccc1)C(=O)N/N=C(\C)c1ccccc1
inactive: [16] 101 % of control | [17] 105 % of control | [18] 100 % of control

O=C1CCCc2cc([N+](=O)[O-])ccc2N1
inactive: dose: 100.0 mg/kg/injection, schedule: Q01DX001 (ip), vehicle: Klucel (hydroxypropylcellulose) (HPC) 101 % of control | dose: 200.0 mg/kg/injection, schedule: Q01DX001 (ip), vehicle: Klucel (hydroxypropylcellulose) (HPC) 103 % of control | dose: 400.0 mg/kg/injection, schedule: Q01DX001 (ip), vehicle: Klucel (hydroxypropylcellulose) (HPC) 102 % of control

CC(C)=C[Si](C)(C)C
inactive: [1] 103 % of control | [2] 110 % of control | [3] 103 % of control

O=C(OCCCCI)c1ccccc1
inactive: dose: 25.0 mg/kg/injection, schedule: Q01DX009 (ip), vehicle: saline + Tween-80 + alcohol 105 % of control | dose: 50.0 mg/kg/injection, schedule: Q01DX009 (ip), vehicle: saline + Tween-80 + alcohol 103 % of control | dose: 100.0 mg/kg/injection, schedule: Q01DX009 (ip), vehicle: saline + Tween-80 + alcohol 104 % of control | dose: 2000.0 mg/kg/injection, schedule: Q01DX009 (ip), vehicle: saline + Tween-80 + alcohol 114 % of control
